According to paper PMC11945486, “TAS1R2/TAS1R3 Single-Nucleotide Polymorphisms Affect Sweet Taste Receptor Activation by Sweeteners: The SWEET Project” (Nutrients, 2025):

Molecular target: T1, human TAS1R2-P21L (subunit alone) (Homo sapiens, UniProt Q8TE23, P21L)
T1 construct: expressed in transfected cells; host or cells: HEK293T-Gα16gust44
T1 sequence (Q8TE23 20-839 P21L): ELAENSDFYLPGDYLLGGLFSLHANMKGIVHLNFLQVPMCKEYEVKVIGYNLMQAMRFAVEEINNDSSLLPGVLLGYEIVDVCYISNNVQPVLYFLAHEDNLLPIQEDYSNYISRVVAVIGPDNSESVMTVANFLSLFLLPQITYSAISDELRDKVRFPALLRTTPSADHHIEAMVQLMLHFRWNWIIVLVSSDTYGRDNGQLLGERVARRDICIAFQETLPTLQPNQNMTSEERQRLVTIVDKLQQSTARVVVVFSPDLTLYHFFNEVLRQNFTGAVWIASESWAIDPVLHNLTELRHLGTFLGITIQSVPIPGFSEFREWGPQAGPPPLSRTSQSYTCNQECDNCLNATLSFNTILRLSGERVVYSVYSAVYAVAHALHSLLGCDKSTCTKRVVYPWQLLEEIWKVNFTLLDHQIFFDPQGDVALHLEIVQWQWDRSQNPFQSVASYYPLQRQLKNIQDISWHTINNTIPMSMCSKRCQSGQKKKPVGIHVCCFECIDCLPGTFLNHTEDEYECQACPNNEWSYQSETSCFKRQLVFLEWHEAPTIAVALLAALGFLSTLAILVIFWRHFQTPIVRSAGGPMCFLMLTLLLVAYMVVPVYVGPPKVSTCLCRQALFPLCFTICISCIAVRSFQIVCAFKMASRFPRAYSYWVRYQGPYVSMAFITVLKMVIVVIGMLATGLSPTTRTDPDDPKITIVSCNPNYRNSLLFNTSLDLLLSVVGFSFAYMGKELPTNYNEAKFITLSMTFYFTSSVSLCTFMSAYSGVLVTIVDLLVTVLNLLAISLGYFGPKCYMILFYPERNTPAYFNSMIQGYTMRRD
Assay: Calcium mobilisation assay, TAS1R2-P21L subunit alone
Assay type: cell-based
Excerpt: The coding sequences for TAS1R2 and TAS1R3 were commercially synthesised, and the human codon was optimised for expression in human cells. The coding sequences of human TAS1R2 and TAS1R3 were subcloned and inserted into the mammalian expression vectors pcDNA6/myc-HisA and pcDNA4/myc-HisA (Invitrogen; Thermo Fisher Scientific; Illkirch, France) between the EcoRI and NotI restriction sites, generating the plasmids pcDNA6-TAS1R2 and pcDNA4-TAS1R3, respectively. To increase protein expression in mammalian cells, an upstream start codon was used, which was a sequence called MAX, corresponding to the QBI SP163 element also described in pcDNA4-HisMax (Invitrogen; Thermo Fisher Scientific; Illkirch, France). To measure the expression level of the receptor by immunohistochemistry, we used the FLAG sequence ([…]) in the C-terminal position, which encodes the FLAG tag epitope. […]
The HEK293T cells were kindly provided by Jay P. Slack (Givaudan Flavors Corporation; Cincinnati, OH, USA). […] The fluorescence intensity was measured for 90 s (excitation 488 nm, emission 510 nm) in an automated fluorometric FlexStation®3 Multi-Mode microplate reader (Molecular Devices; San Jose, CA, USA). […] The Ca^2+ changes were expressed as fractional changes in fluorescent light intensity: ΔF/F = (F − F0)/F0, where F was the fluorescent light intensity at each point, and F0 was the value of emitted fluorescent light prior to stimulus application. To calculate dose–response relationships, the changes in fluorescence upon stimulus application were averaged, mock-subtracted and baseline-corrected. […] The half-maximal effective concentrations (EC50 values) and maximal signal amplitudes were calculated using SigmaPlot software (version 15.0) (Systat Software; San Jose, CA, USA).
For in vitro calcium mobilisation assay performed on hTAS1R2-SNPs, hTAS1R3-SNPs and mTAS1R3-I60T, 6 to 7 concentrations were tested for each sweet compound, plus buffer alone. All concentration–receptor combinations were measured in duplicate, and each experiment was repeated at least 4 times (8 wells/concentration). […]

EC50: 149 ± 22.7 µM
R1 = Variant EC50/WT EC50: 1.7
Max ΔF/F0 (maximal signal amplitude): 0.33 ± 0.02
Structure (SMILES): C=C(C)[C@@H]1CC=C(/C=N/O)CC1 [Perillartine, perillartine]
